Laboratory results published in US4160839A, “Carbamyltriazole insecticides” (priority 1976, dated 1979).

Legend:
insects = test: Insecticidal activity (general statement); settings: statement in words
[1] = test system: Mexican bean beetle (MBB) larvae; test: Spray test, Mexican bean beetle (MBB) larvae on bean leaves; format: in vivo; settings: approx. 48 h after spraying
Description: (§1) Three 5 oz paper cups containing Henderson dwarf lima bean plants and one 5 oz paper cup containing Orange Gem nasturtiums, all growing in vermiculite, are placed on a turntable and sprayed to thorough wetness with 25 ml of a solution of the candidate chemical at the appropriate concentration. Nasturtiums were already infested with 50-100 bean aphids (BA). A bean plant in one paper cup was already infested with 50-100 two-spotted mites (TSM). Leaves from the two remaining bean plants are removed following spraying and placed in disposable petri dishes with 5 southern armyworm (SA) larvae in one petri dish, and 5 Mexican bean beetle (MBB) larvae in the other petri dish. The rating is done approximately 48 hours after spraying as follows:
(§2) So as to obtain more meaningful results, all tests are performed at the same time of day, whenever possible, usually in the forenoon. Temperature,illumination and humidity are the same in all tests. Atmospheric pressure is not controlled.
(§3) Results obtained with the novel insecticides of this invention at various concentrations of active chemical are tabulated below. The ratings given are for averages of three or more replicates. The oral lethal dose for 50 percent kill of laboratory rats is also recorded in the table. In conducting the toxicity tests on rats, 0.01 g of active chemical per ml in corn oil is employed as an additive to the diet of the animals.

[2] = test system: southern armyworm (SA) larvae; test: Spray test, southern armyworm (SA) larvae on bean leaves; format: in vivo; settings: approx. 48 h after spraying
Description: as §1, §2, §3

bean aphids (BA) = test: Spray test, bean aphids (BA) on nasturtiums; format: in vivo; settings: approx. 48 h after spraying
Description: as §1, §2, §3

two-spotted mites (TSM) = test: Spray test, two-spotted mites (TSM) on bean plants; format: in vivo; settings: 500 ppm; approx. 48 h after spraying
Description: as §1, §2, §3

[3] = test system: Southern Corn Rootworm (SCR); test: Southern Corn Rootworm (SCR) soil treatment test, root feeding damage on corn; format: in vivo; set-up: scale not given here; settings: nine days after treatment
Description: Three 5 oz paper cups planted each with one kernel of DeKalb XL-361 corn are treated two days after planting with 10 ml of a 125 ppm solution of the candidate compound. Compounds with high efficacy are treated at lower concentrations. The experiment is a 4×5 factorial in a randomized complete block design with three replications. The tests are evaluated nine days after treatment. The roots are inspected under a dissecting microscope and rated as follows:
as §2, §3

[4] = Oral toxicity test on laboratory rats; settings: rat, in vivo, in corn oil as additive to the diet, read-out: LD50 (oral lethal dose for 50 percent kill of laboratory rats)
Description: as §3

Row | Compound | MBB rating (larvae dead) ([1]; 15 ppm) | MBB rating (larvae dead) ([1]; 31 ppm) | MBB rating (larvae dead) ([1]; 62 ppm) | MBB rating (larvae dead) ([1]; 125 ppm) | MBB rating (larvae dead) ([1]; 250 ppm) | MBB rating (larvae dead) ([1]; 500 ppm) | SA rating (larvae dead) ([2]; 15 ppm) | SA rating (larvae dead) ([2]; 31 ppm) | SA rating (larvae dead) ([2]; 62 ppm) | SA rating (larvae dead) ([2]; 125 ppm) | SA rating (larvae dead) ([2]; 250 ppm) | SA rating (larvae dead) ([2]; 500 ppm) | BA rating (dead) (bean aphids (BA); 4 ppm) | BA rating (dead) (bean aphids (BA); 15 ppm) | BA rating (dead) (bean aphids (BA); 31 ppm) | BA rating (dead) (bean aphids (BA); 125 ppm) | BA rating (dead) (bean aphids (BA); 250 ppm) | BA rating (dead) (bean aphids (BA); 500 ppm) | TSM rating (dead adults) (two-spotted mites (TSM)) | SCR Rating (root feeding damage) ([3]; 12 ppm) | other results
1 | C#CCSc1nc(C2CCCCC2)nn1C(=O)N(C)C [1-N,N-dimethylcarbamyl-3-cyclohexyl-5-propargylthio-1,2,4-triazole] | – | – | – | – | – | – | – | – | – | – | – | – | – | – | – | – | – | – | – | – | insecticidal activity (insects): virtually useless as insecticides
2 | C#CCSc1nc(C(C)C)nn1C(=O)N(C)C [R=2-propynyl, R'=isopropyl] | 0 (no larvae dead) | 4 (76-99% larvae dead) | 5 (100% larvae dead) | 5 (100% larvae dead) | 5 (100% larvae dead) | 5 (100% larvae dead) | 0 (no larvae dead) | 0 (no larvae dead) | 0 (no larvae dead) | 3 (51-75% larvae dead) | 5 (100% larvae dead) | 5 (100% larvae dead) | 3 (51-75% dead) | 5 (100% dead) | 5 (100% dead) | 5 (100% dead) | 5 (100% dead) | 5 (100% dead) | 0 (no dead adults) | 0.3 | BA rating (dead) (bean aphids (BA); 2 ppm): 0 (none dead); SCR Rating (root feeding damage) ([3]; 25 ppm): 1.3; SCR Rating (root feeding damage) ([3]; 50 ppm): 2.7; LD50 [4]: ~50 mg/kg
3 | C#CCSc1nc(C(C)(C)C)nn1C(=O)N(C)C [R=2-propynyl, R'=tert.butyl] | 4 (76-99% larvae dead) | 5 (100% larvae dead) | 5 (100% larvae dead) | 5 (100% larvae dead) | 5 (100% larvae dead) | 5 (100% larvae dead) | 0 (no larvae dead) | 0 (no larvae dead) | 0 (no larvae dead) | 2 (26-50% larvae dead) | 5 (100% larvae dead) | 5 (100% larvae dead) | 5 (100% dead) | 5 (100% dead) | 5 (100% dead) | 5 (100% dead) | 5 (100% dead) | 5 (100% dead) | 1 (1-25% dead adults) | 4.5 | MBB rating (larvae dead) ([1]; 4 ppm): 0 (no larvae dead); MBB rating (larvae dead) ([1]; 8 ppm): 0 (no larvae dead); BA rating (dead) (bean aphids (BA); 8 ppm): 5 (100% dead); BA rating (dead) (bean aphids (BA); 62 ppm): 5 (100% dead); SCR Rating (root feeding damage) ([3]; 6 ppm): 3.5; LD50 [4]: > 50 mg/kg
